Experimental data as given in paper PMC7029871, “Development and validation of a sensitive LC-MS/MS method for the quantitation of IMB-YH-4py5-2H, an antituberculosis candidate, and its application to the pharmacokinetic study” (PLoS ONE, 2020).
Read-outs that look alike come from different tables or passages of the source.

Legend:
[1] = test system: intracellular M. tuberculosis H37Rv; experiment: Intracellular activity assay in infected macrophages; type: cell-based, Mycobacterium tuberculosis; conditions: for Log10CFU: three-day incubation, infected J744 macrophages, untreated 6.47±0.04
CYP2B6 = target: T1, CYP2B6 (Homo sapiens, UniProt P20813); experiment: Metabolism by recombinant human P450 enzyme; type: in vitro ADME; conditions: recombinant CYP2B6 0.05 nmol/mL, 1 μM, 30 min
T1 construct: purchased Corning (Woburn, MA, USA)
T1 sequence (P20813 1-491): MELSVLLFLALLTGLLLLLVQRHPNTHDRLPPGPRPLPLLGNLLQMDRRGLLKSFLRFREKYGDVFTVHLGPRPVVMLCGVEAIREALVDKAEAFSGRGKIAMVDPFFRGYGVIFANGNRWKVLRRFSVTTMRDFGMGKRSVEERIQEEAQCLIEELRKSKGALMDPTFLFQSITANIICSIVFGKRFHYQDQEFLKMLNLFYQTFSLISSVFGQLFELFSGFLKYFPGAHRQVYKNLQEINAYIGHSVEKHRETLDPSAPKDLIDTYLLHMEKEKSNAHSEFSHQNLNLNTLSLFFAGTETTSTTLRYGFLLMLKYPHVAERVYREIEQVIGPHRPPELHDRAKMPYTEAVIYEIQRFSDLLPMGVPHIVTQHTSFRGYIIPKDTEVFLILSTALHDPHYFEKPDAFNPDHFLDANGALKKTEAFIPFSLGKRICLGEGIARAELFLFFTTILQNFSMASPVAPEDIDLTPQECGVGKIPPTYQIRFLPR
Experimental: In addition, to characterize the enzymes that may be involved in microsomal metabolism, IMB-YH-4py5-2H was incubated at 37°C for 30 min with different recombinant human P450 enzymes, i.e., CYP1A2, CYP2A6, CYP2B6, CYP2C8, CYP2C9, CYP2C19, CYP2D6, CYP2E1, CYP3A4 and CYP3A5. The incubation system included CYP isoenzyme at a final concentration of 0.05 nmol/mL, 100 mM PBS (pH 7.4) or 100 mmol/L Tris buffer (pH 7.5, Tris buffer was used in the CYP2C9 and CYP2A6 reaction systems and PBS was used for the other enzymes), NADPH regeneration system, and 1 μM IMB-YH-4py5-2H.
After incubation, the samples were processed as described in “Sample processing”. All experiments were performed in triplicate. The concentration of IMB-YH-4py5-2H was measured using LC-MS/MS analysis.

[2] = Pharmacokinetic study in rats, single oral dose; type: in vivo, Sprague-Dawley rats; conditions: for AUC(0-inf) / CL/F / MRT / Tmax / AUC(0-t) / Vd/F / half-life / Cmax: both sexes, Sprague-Dawley; for AUC(0-inf) / CL/F / MRT / Tmax / AUC(0-t) / Vd/F / half-life: plasma, rat; for AUC(0-t): read-out: AUC0-60; for Vd/F: read-out: Vz/F; for half-life: po; for Cmax: rat plasma
Experimental: A total of 18 adult SD rats were randomly divided into three dosing groups (half male and half female). IMB-YH-4py5-2H suspensions were freshly prepared in 1% (w/v) sodium carboxymethyl cellulose (CMC-Na). The rats were fasted with free access to water for 12 h prior to the oral administration of IMB-YH-4py5-2H at doses of 50, 100 or 200 mg/kg and fasted for another 2 h after administration. Blood samples of 0.2 mL were collected via the post-orbital venous plexus vein at 0.033, 0.083, 0.167, 0.333, 0.5, 0.75, 1, 1.5, 2, 4, 6, 8, 12, 24, 36, 48, and 60 h post dosing into a heparinized tube. Plasma samples, obtained by centrifuging blood at 2300 × g for 15 min at 4°C, were stored at −20°C until analysis.
The pharmacokinetic parameters of IMB-YH-4py5-2H were calculated by WinNonlin (Version 6.1, Pharsight Corp., Mountain View, CA, USA) using a non-compartmental model. Data were expressed as the mean ± standard deviation (S.D.).

Rat AMs NR8383 cells = experiment: In vitro uptake study in alveolar macrophages; type: cell-based; conditions: 24 h-exposure in 2 μg/mL
Experimental: Rat AMs NR8383 cells (American Type Culture Collection, Manassas, VA, USA) were grown overnight at 37°C with 5% CO2 in Ham’s F12K medium (Gibco, Grand island, NY, USA) containing 20% fetal bovine serum (FBS, Gibco, Thornton, Australia) in 24-well culture plates (4 × 10^5 cells/well in 1 mL culture medium). After 24 h-exposure to IMB-YH-4py5-2H (2 μg/mL), the culture medium and the subsequent three washes were pooled and processed further for the determination of the extracellular drug concentrations. The cells were then extracted with 0.1 M NaOH to collect the intracellular drug for the LC-MS/MS analysis. All experiments were done in triplicate. The intracellular/extracellular drug concentration ratios were then calculated.

[3] = Stability of QC samples in rat plasma; type: in vitro ADME; conditions: for %Theoretical, Autosampler: extracted plasma QC; for %Theoretical, Long-term / %Theoretical, 24 h ambient / %Theoretical, freeze-thaw: rat plasma; for %Theoretical, Long-term: 2 weeks at -20°C
Experimental: Six replicates of the QC samples at low, medium and high concentrations subjected to the conditions below were evaluated for the stability of IMB-4py5-2H in rat plasma. Short-term stability was assessed by the analysis of the QCs kept at room temperature for 24 h, which exceeded the routine preparation time of the samples. Long-term stability was determined by assaying the QCs after storage for 2 weeks at −20°C. Freeze–thaw stability was investigated after three freeze (−20°C)–thaw (room temperature) cycles. Post-preparative stability was assessed by analyzing the extracted QC samples kept in autosampler at 4°C for 24 h.

[4] = extracellular concentration of 2 μg/mL

CN(C)C(=O)/C=C/C(=O)c1ccc(-c2ccncc2)cc1.Cl [IMB-YH-4py5-2H, (E)-N,N-dimethyl-4-oxo-4-(4-(pyridin-4-yl)phenyl)but-2-enamide hydrochloride]
Log10CFU ([1]; 0.5 μg/mL): 6.44±0.02 Log10CFU | Log10CFU ([1]; 1 μg/mL): 6.40±0.05 Log10CFU | Log10CFU ([1]; 2 μg/mL): 6.02±0.11 Log10CFU | bacterial density reduction on intracellular M. tuberculosis [1, 4]: ~70% | reduction on intracellular M. tuberculosis [1, 4]: 0.45 log10CFU | metabolism by CYP isozyme (CYP2B6): high metabolic activity | AUC(0-inf) ([2]; single oral dose 50 mg/kg): 1440 ± 370 ng·h/mL | CL/F ([2]; single oral dose 50 mg/kg): 613 mL/min/kg | MRT ([2]; single oral dose 50 mg/kg): 7.63 ± 1.58 h | Tmax ([2]; single oral dose 50 mg/kg): 0.28 ± 0.08 h | AUC(0-t) ([2]; single oral dose 50 mg/kg): 1400 ± 367 ng·h/mL | Vd/F ([2]; single oral dose 50 mg/kg): 379 ± 100 L/kg | AUC(0-inf) ([2]; single oral dose 100 mg/kg): 2850 ± 430 ng·h/mL | CL/F ([2]; single oral dose 100 mg/kg): 610 mL/min/kg | MRT ([2]; single oral dose 100 mg/kg): 7.7 ± 1.43 h | Tmax ([2]; single oral dose 100 mg/kg): 0.44 ± 0.09 h | AUC(0-t) ([2]; single oral dose 100 mg/kg): 2840 ± 425 ng·h/mL | Vd/F ([2]; single oral dose 100 mg/kg): 336 ± 74 L/kg | AUC(0-inf) ([2]; single oral dose 200 mg/kg): 5730 ± 664 ng·h/mL | CL/F ([2]; single oral dose 200 mg/kg): 589 mL/min/kg | MRT ([2]; single oral dose 200 mg/kg): 10.7 ± 0.85 h | Tmax ([2]; single oral dose 200 mg/kg): 0.33 h | AUC(0-t) ([2]; single oral dose 200 mg/kg): 5710 ± 659 ng·h/mL | Vd/F ([2]; single oral dose 200 mg/kg): 394 ± 58 L/kg | half-life ([2]; 50 mg/kg, single oral dose 50 mg/kg, read-out: t1/2 (converted)): 7.24 ± 1.61 h | half-life ([2]; 100 mg/kg, single oral dose 100 mg/kg, read-out: t1/2 (converted)): 6.37 ± 0.93 h | half-life ([2]; 200 mg/kg, oral, all three dosing groups (50, 100, 200 mg/kg), read-out: half-life (converted)): ~7 h | half-life ([2]; 200 mg/kg, single oral dose 200 mg/kg, read-out: t1/2 (converted)): 7.71 ± 0.41 h | Cmax ([2]; single oral dose 50 mg/kg): 367 ± 23 ng/mL | Cmax ([2]; single oral dose 100 mg/kg): 586 ± 31.2 ng/mL | Cmax ([2]; single oral dose 200 mg/kg): 1300 ± 194 ng/mL | AUC relative to that of YH-8 ([2]; following the same oral dose, YH-8 data ref 20): approximately 2.5 fold | intracellular to extracellular concentration ratio (I/E ratio) (Rat AMs NR8383 cells): 133.4±12.5 | %Theoretical, Autosampler ([3]; autosampler 4°C 24 h, nominal 2.5 ng/mL): 100.11 ± 1.20% | %Theoretical, Autosampler ([3]; autosampler 4°C 24 h, nominal 20 ng/mL): 103.26 ± 6.07% | %Theoretical, Autosampler ([3]; autosampler 4°C 24 h, nominal 80 ng/mL): 97.85 ± 4.96% | %Theoretical, Long-term ([3]; nominal 2.5 ng/mL): 92.33 ± 4.21% | %Theoretical, Long-term ([3]; nominal 20 ng/mL): 91.65 ± 3.91% | %Theoretical, Long-term ([3]; nominal 80 ng/mL): 94.98 ± 7.26% | %Theoretical, 24 h ambient ([3]; room temperature 24 h, nominal 2.5 ng/mL): 94.35 ± 3.65% | %Theoretical, 24 h ambient ([3]; room temperature 24 h, nominal 20 ng/mL): 91.96± 5.79% | %Theoretical, 24 h ambient ([3]; room temperature 24 h, nominal 80 ng/mL): 103.77 ±2.51% | %Theoretical, freeze-thaw ([3]; three freeze-thaw cycles, nominal 2.5 ng/mL): 90.11 ± 6.19% | %Theoretical, freeze-thaw ([3]; three freeze-thaw cycles, nominal 20 ng/mL): 88.79 ± 3.27% | %Theoretical, freeze-thaw ([3]; three freeze-thaw cycles, nominal 80 ng/mL): 94.17 ± 5.10% | stability in rat plasma ([3]; room temperature 24 h, -20°C 2 weeks, three freeze-thaw cycles, autosampler 4°C 24 h): stable
